Assay results reported in US6346539B1, “Treatment of skin conditions” (BTG International Limited, priority 1998, dated 2002).
Like-named read-outs stand apart in the source and are kept apart here.

Assays:
mouse melan-a cells = test: Melanocyte proliferant activity of piperine derivatives, SRB assay, 4 days, 10% FBS; assay type: cell-based; settings: for Relative activity to piperine: (A-100) compound/(A-100) piperine; for activity at 1 µM / activity at 10 µM / activity at 50 µM / activity at 100 µM / activity at 25 µM: Mus musculus, Melan-a, 96 h; for Active at 10 μM? / More active than piperine at higher conc. (μM)? / Active at higher conc. (μM)?: overall summary; for More active than piperine at higher conc. (μM)?: concentrations at which more active than piperine; for Active at higher conc. (μM)?: concentrations at which active
Protocol: The plates were incubated at 37° C. in a 10% CO2, 90% air humidified atmosphere for the stated length of time. At the end of the incubation, an SRB assay was performed. Briefly, cells attached to the bottom of the plate were fixed by addition of cold trichloroacetic acid (TCA, 4° C., Aldrich, Dorset, UK) on the top of the growth medium (final TCA 20% w/v). The plate was placed at 4° C. for 1 hour before being gently washed five times with tap water. It was allowed to dry in air, or aided with a hair dryer to speed up the drying process, then 50 μl of 4% w/v SRB dissolved in 1% acetic acid in water was added to each well for 30 min. At the end of the staining period, unbound SRB was removed by washing 4 times with 1% acetic acid. The plate was air dried again, and 150 μl of 10 mM aqueous Tris base (Sigma-Aldrich Co. Ltd, Irvine, UK) was added into each well to solubilize the cell-bound dye.
Various piperine derivatives of formula (1) were synthesised and tested for melanocyte (mouse melan-a) proliferant activity in-vitro. Cells we re incubated with the test compound for 4 days, as previously for the mouse cells but with 10% FBS, after which the sulphorhodamine-B (SRB) assay was performed to determnine cell number SRB uptake was measured as optical density at 550 nm. The control assay was carried out on cells incubated without test compound. There were 2 or 3 series of experiments, each of which consisted of six replcate experiments.
Percentage cell growth was obtained with a given compound calculated as (optical density in the presence of the compound/control optical density)×100.
Melan-a cell proliferant activity for tested compounds was compared with that obtained with piperine. […] All figures are given with Standard Error of the Mean.

melan-a cells = test: Dendricity of melan-a cells by observation under microscope; assay type: cell-based, mouse; parameters: key: +++: highly dendritic; ++: moderately dendritic; +: weakly dendritic; −: no effect
Text: Effect on dendricity of melan-a cells by the test compounds was by observation under microscope. Dendricity is relevant to vitiligo since normal skin melanocytes have dendrites, but in vitiligo the melanocytes seem to lose these before they disappear from the patches.

[1] = read-out: growth of melan-a cells as % of control, dose experiment
[2] = 10 μM, read-out: growth of melan-a cells as % of control, dose experiment
[3] = single concentration (10 μM), melan-a, ± SEM, read-out: Percentage cell growth (Repeated experiments)
[4] = single concentration (10 μM), melan-a

Row | Structure (SMILES) | Relative activity to piperine (mouse melan-a cells; 10 μM) | activity at 1 µM (mouse melan-a cells; [1]) | activity at 10 µM (mouse melan-a cells; [2]) | activity at 50 µM (mouse melan-a cells; [1]) | activity at 100 µM (mouse melan-a cells; [1]) | activity at 10 µM (mouse melan-a cells; [3]) | Active at 10 μM? (mouse melan-a cells; melan-a) | Stimulant activity (mouse melan-a cells; [4]) | Dentricity, dose experiment (melan-a cells; 1 μM) | Dentricity, dose experiment (melan-a cells; 10 μM) | Dentricity, dose experiment (melan-a cells; 50 μM) | Dentricity, dose experiment (melan-a cells; 100 μM) | Dendricity (melan-a cells; Table 9, 10 μM) | activity at 25 µM (mouse melan-a cells; [1]) | More active than piperine at higher conc. (μM)? (mouse melan-a cells) | Dendricity (melan-a cells; Table 7, 10 μM) | Active at higher conc. (μM)? (mouse melan-a cells) | Dendricity (melan-a cells; Table 8, 10 μM) | Dendricity (melan-a cells; Table 12, 10 μM)
1 | CCCCOC(=O)/C=C/C=C/c1ccc2c(c1)OCO2 [RV-AB6, 5-E,E-piperinic Acid Butyl Ester] | 0.59 | 103 ± 5% | 148 ± 18% | 190 ± 11% | 128 ± 17% | 148 ± 18% | Yes | Positive | − | + | ++ | + | + |  |  |  |  |  | 
2 | CCCOC(=O)/C=C/C=C/c1ccc2c(c1)OCO2 [RV-AB5, 5-E,E-piperinic Acid Propyl Ester] | 0.95 | 120 ± 21% | 151 ± 19% | 163 ± 8% | 123 ± 8% | 166 ± 35% | Yes | Positive | − | ++ | ++ | + | ++ |  |  |  |  |  | 
3 | CCCCCCNC(=O)/C=C/C=C/c1ccc2c(c1)OCO2 [RV-A05, 5-E,E-piperinoylhexylamine] |  | 155 ± 9% | 188 ± 13% | 178 ± 8% |  |  | Yes | Positive |  |  |  |  |  | 178 ± 18% | No | +++ |  |  | 
4 | O=C(/C=C/C=C/c1ccc2c(c1)OCO2)NC1CCCCC1 [RV-A10, 5-E,E-piperinoyl cyclohexylamine] | 1.02 | 301 ± 20% | 308 ± 29% | 155 ± 22% | 100 ± 13% | 308 ± 29% | Yes | Positive | +++ | +++ | + | + |  |  |  | +++ |  |  | 
5 | CCOC(=O)/C=C/C=C/c1ccc2c(c1)OCO2 [RV-AB2, 5-E,E-piperinic Acid Ethyl Ester] |  |  |  |  |  | 29 ± 9% | No^c | Positive |  |  |  |  | Toxic |  |  |  |  |  | 
6 | CCNC(=O)/C=C/C=C/c1ccc2c(c1)OCO2 [RV-A08, 5-E,E-piperinoylethylamine] | 0.73 | 139 ± 27% | 200 ± 14% | 81 ± 12% | 62 ± 13% | 200 ± 14% | Yes | Positive | ++ | +++ | + | + |  |  | No | +++ | No |  | 
7 | COc1cccc(/C=C/C(=O)N2CCCCC2)c1 [RV-G02, 1-(3-methoxy-cinnamoyl)piperidine] |  | 99 ± 5% | 95 ± 18% | 110 ± 11% | 127 ± 9% |  | No | Negative | − | − | − | − |  |  | No |  |  |  | 
8 | COc1ccccc1/C=C/C(=O)N1CCCCC1 [RV-G01, 1-(2-methoxy-cinnamoyl)-piperidine] | 0.04 | 99 ± 8% | 105 ± 8% | 103 ± 6% | 119 ± 9% | 105 ± 8% | No | None | − | − | − | − |  |  | No |  |  |  | 
9 | COC(=O)/C=C/C=C/c1ccc2c(c1)OCO2 [RV-AB1, 5-E,E-piperinic Acid Methyl Ester] |  | 125 ± 13% | 147 ± 16% | 187 ± 12% | 171 ± 8% |  | Yes | Positive | − | + | ++ | ++ | ++ |  |  |  |  |  | 
10 | CC(C)CNC(=O)/C=C/C=C/c1ccc2c(c1)OCO2 [RV-A06, Piperlonguminine] |  | 134 ± 7% | 188 ± 14% | 135 ± 24% |  | 147 ± 66% | Yes | Positive |  |  |  |  |  | 172 ± 15% | No | +++ |  |  | 
11 | O=C(/C=C/c1ccc2c(c1)OCO2)N1CCCC1 [RV-B02, 1-(3-trans-benzo-1,3-dioxol-5-ylacryloyl)pyrrolidine] |  |  |  |  |  | 140 ± 14% | No^b | Non- significant |  |  |  |  |  |  |  |  |  | + | 
12 | CC(C)OC(=O)/C=C/C=C/c1ccc2c(c1)OCO2 [RV-AB4, 5-E,E-piperinic Acid Isopropyl Ester] | 0.8 | 175 ± 6% | 224 ± 12% | 148 ± 19% | 90 ± 7% | 224 ± 12% | Yes | Positive | ++ | ++ | ++ | + | ++ |  |  |  |  |  | 
13 | CC(C)NC(=O)/C=C/C=C/c1ccc2c(c1)OCO2 [RV-A09, 5-E,E-piperinoylisopropylamine] | 0.76 | 187 ± 15% | 224 ± 19% | 85 ± 5% | 42 ± 6% | 224 ± 19% | Yes | Positive | +++ | +++ | + | + |  |  | No | +++ | No |  | 
14 | O=C(/C=C/c1ccc2c(c1)OCO2)N1CCOCC1 [RV-B03, 1-(3-trans-benzo-1,3-dioxol-5-ylacryloyl)morpholine] |  |  |  |  |  | 103 ± 12% | No | None |  |  |  |  |  |  |  |  |  | − | 
15 | O=C(/C=C/C=C/c1ccc2c(c1)OCO2)N1CCOCC1 [RV-A02, 5-E,E-piperinoyl morpholine] |  | 125 ± 10% | 167 ± 17% | 168 ± 12% |  |  | Yes | Positive |  |  |  |  |  | 171 ± 8% |  | +++ |  |  | 
16 | COc1ccc(/C=C/C(=O)N2CCCCC2)cc1 [RV-G03, 1-(4-methoxy-cinnamoyl)piperidine] |  | 90 ± 10% | 108 ± 20% | 111 ± 10% | 133 ± 15% | 121 ± 8% | No | Non- significant | − | − | − | − |  |  | No |  |  |  | −
17 | O=C(/C=C/c1ccc2c(c1)OCO2)N1CCCCC1 [RV-B01, 1-(3-trans-benzo-1,3-dioxol-5-ylacryloyl)piperidine] |  | 111 ± 6% | 147 ± 7% | 187 ± 8% |  |  | Yes | Positive |  |  |  |  |  | 187 ± 18% |  |  |  | ++ | 
18 | COC(=O)/C=C/c1ccc2c(c1)OCO2 [RV-BB1, 3-trans-benzo-1,3-dioxol-5-ylacrylic acid methyl ester] |  |  |  |  |  |  | No^b | Non- significant |  |  |  |  |  |  |  |  |  |  | 
